Source: US20150148234A1, “HERBICIDE-RESISTANT SUNFLOWER PLANTS WITH MULTIPLE HERBICIDE RESISTANT ALLELES OF AHASL1 AND METHODS OF USE” (NIDERA S.A., priority 2013, published 2015)

Assays:
Experiment in all cases: imazapyr whole plant greenhouse test (Example 2)
Assay type in all cases: in vivo
sunflower line L2, A205V = system: sunflower line L2, A205V
Procedure: (§1) Seeds were sown in Petri dishes and, after germination, plantlets were transplanted to pots of 10 cm of diameter in a potting media consisting of equal parts of vermiculite, soil and sand. Plants were grown in a greenhouse under natural light conditions supplemented with 400 W sodium halide lamps to provide a 16 hr daylength. Day/night temperatures were 25 and 20 ° C., respectively. At the V2-V4 stage (Schneiter & Miller (1981) Crop Sci. 21:901-903) 10 plants of each genotype were randomly assigned to each treatment consisting of eight imazapyr doses (0, 40, 80, 160, 240, 320, 400 and 480 g ai/ha, corresponding to untreated, 0.5×, 1×, 2×, 3×, 4×, 5× and 6×, respectively), and a zero-time biomass determination. Experiment was arranged as a randomized block design with a full factorial (sunflower line×treatment) arrangement of treatments and 10 replications.
(§2) On the day of herbicide application ten plants of each genotype were cut at the cotyledonal node and dried at 60° C. for 48 hrs for zero-time dried weight determination.
(§3) The remaining plants were maintained for 14 days after imazapyr treatment (DAT) and their height, Phytotoxicity Index (PI) and above ground dry biomass were determined Height was determined as the distance between the cotyledonal node and the apex of each plant. Above ground biomass data from each line were converted to biomass accumulation after application by subtracting the appropriate average zero- time biomass from each sample. Dry biomass data were converted to percentages of the untreated control plants within each line to allow direct comparisons between groups.

[1] = system: sunflower line L3 (cmsGM40), A122T
Procedure: as §1, §2, §3

[2] = system: sunflower line L5 (BTK 47), susceptible, WT; settings: for Phytotoxicity Index (0-9) 14 days after treatment / biomass accumulation 14 days after treatment, % of untreated / plant height 14 days after treatment, % of untreated: L5; for height reduction: susceptible line
Procedure: as §1, §2, §3

`CC(C)C1(C)N=C(c2ncccc2C(=O)O)NC1=O` (stereo not shown) [imazapyr] was tested, and the “biomass accumulation 14 days after treatment, % of untreated” value (sunflower line L2, A205V; dose 3 (3x, 240 g ai/ha)) was 48.1%, the “plant height 14 days after treatment, % of untreated” value (sunflower line L2, A205V; dose 3 (3x, 240 g ai/ha)) was 51.9% and the “Phytotoxicity Index (0-9) 14 days after treatment” value (“Phytotoxicity Index (0-9) 14 days” below) (sunflower line L2, A205V; dose 4 (4x, 320 g ai/ha)) was 5.9. For the same molecule, the “biomass accumulation 14 days after treatment, % of untreated” value (sunflower line L2, A205V; dose 4 (4x, 320 g ai/ha)) was 28.8%, the “plant height 14 days after treatment, % of untreated” value (sunflower line L2, A205V; dose 4 (4x, 320 g ai/ha)) was 27.5% and the “Phytotoxicity Index (0-9) 14 days” value (sunflower line L2, A205V; dose 5 (5x, 400 g ai/ha)) was 6.9. For the same molecule, the “biomass accumulation 14 days after treatment, % of untreated” value (sunflower line L2, A205V; dose 5 (5x, 400 g ai/ha)) was 27.4%, the “plant height 14 days after treatment, % of untreated” value (sunflower line L2, A205V; dose 5 (5x, 400 g ai/ha)) was 26.0% and the “Phytotoxicity Index (0-9) 14 days” value (sunflower line L2, A205V; dose 6 (6x, 480 g ai/ha)) was 6.7. The “biomass accumulation 14 days after treatment, % of untreated” value (sunflower line L2, A205V; dose 6 (6x, 480 g ai/ha)) was 24.9%, the “plant height 14 days after treatment, % of untreated” value (sunflower line L2, A205V; dose 6 (6x, 480 g ai/ha)) was 29.3% and the “Phytotoxicity Index (0-9) 14 days” value ([1]; dose 0.5 (0.5x, 40 g ai/ha)) was 0.4. For the same molecule, the “biomass accumulation 14 days after treatment, % of untreated” value ([1]; dose 0.5 (0.5x, 40 g ai/ha)) was 96.6%, the “plant height 14 days after treatment, % of untreated” value ([1]; dose 0.5 (0.5x, 40 g ai/ha)) was 100.4% and the “Phytotoxicity Index (0-9) 14 days” value ([1]; dose 1 (1x, 80 g ai/ha)) was 0.4. For the same molecule, the “biomass accumulation 14 days after treatment, % of untreated” value ([1]; dose 1 (1x, 80 g ai/ha)) was 93.9%, the “plant height 14 days after treatment, % of untreated” value ([1]; dose 1 (1x, 80 g ai/ha)) was 99.9% and the “Phytotoxicity Index (0-9) 14 days” value ([1]; dose 2 (2x, 160 g ai/ha)) was 0.4. For the same molecule, the “biomass accumulation 14 days after treatment, % of untreated” value ([1]; dose 2 (2x, 160 g ai/ha)) was 81.6%, the “plant height 14 days after treatment, % of untreated” value ([1]; dose 2 (2x, 160 g ai/ha)) was 92.0% and the “Phytotoxicity Index (0-9) 14 days” value ([1]; dose 3 (3x, 240 g ai/ha)) was 0.5. For the same molecule, the “biomass accumulation 14 days after treatment, % of untreated” value ([1]; dose 3 (3x, 240 g ai/ha)) was 75.8%, the “plant height 14 days after treatment, % of untreated” value ([1]; dose 3 (3x, 240 g ai/ha)) was 90.5% and the “Phytotoxicity Index (0-9) 14 days” value ([1]; dose 4 (4x, 320 g ai/ha)) was 1.0. The “biomass accumulation 14 days after treatment, % of untreated” value ([1]; dose 4 (4x, 320 g ai/ha)) was 75.0%, the “plant height 14 days after treatment, % of untreated” value ([1]; dose 4 (4x, 320 g ai/ha)) was 90.8% and the “Phytotoxicity Index (0-9) 14 days” value ([1]; dose 5 (5x, 400 g ai/ha)) was 2.0. The “biomass accumulation 14 days after treatment, % of untreated” value ([1]; dose 5 (5x, 400 g ai/ha)) was 60.1%, the “plant height 14 days after treatment, % of untreated” value ([1]; dose 5 (5x, 400 g ai/ha)) was 84.4% and the “Phytotoxicity Index (0-9) 14 days” value ([1]; dose 6 (6x, 480 g ai/ha)) was 2.5. The “biomass accumulation 14 days after treatment, % of untreated” value ([1]; dose 6 (6x, 480 g ai/ha)) was 59.6%, the “plant height 14 days after treatment, % of untreated” value ([1]; dose 6 (6x, 480 g ai/ha)) was 84.4% and the “Phytotoxicity Index (0-9) 14 days” value ([2]; dose 0.5 (0.5x, 40 g ai/ha)) was 9. The “biomass accumulation 14 days after treatment, % of untreated” value ([2]; dose 0.5 (0.5x, 40 g ai/ha)) was 18.3%, the “plant height 14 days after treatment, % of untreated” value ([2]; dose 0.5 (0.5x, 40 g ai/ha)) was 20.14% and the “Phytotoxicity Index (0-9) 14 days” value ([2]; dose 1 (1x, 80 g ai/ha)) was 9. For the same molecule, the “biomass accumulation 14 days after treatment, % of untreated” value ([2]; dose 1 (1x, 80 g ai/ha)) was 15.0%, the “plant height 14 days after treatment, % of untreated” value ([2]; dose 1 (1x, 80 g ai/ha)) was 14.58% and the “Phytotoxicity Index (0-9) 14 days” value ([2]; dose 2 (2x, 160 g ai/ha)) was 9. For the same molecule, the “biomass accumulation 14 days after treatment, % of untreated” value ([2]; dose 2 (2x, 160 g ai/ha)) was 15.0%, the “plant height 14 days after treatment, % of untreated” value ([2]; dose 2 (2x, 160 g ai/ha)) was 14.58% and the “Phytotoxicity Index (0-9) 14 days” value ([2]; dose 3 (3x, 240 g ai/ha)) was 9. The “biomass accumulation 14 days after treatment, % of untreated” value ([2]; dose 3 (3x, 240 g ai/ha)) was 15.0%, the “plant height 14 days after treatment, % of untreated” value ([2]; dose 3 (3x, 240 g ai/ha)) was 14.58% and the “Phytotoxicity Index (0-9) 14 days” value ([2]; dose 4 (4x, 320 g ai/ha)) was 9. The “biomass accumulation 14 days after treatment, % of untreated” value ([2]; dose 4 (4x, 320 g ai/ha)) was 15.0%, the “plant height 14 days after treatment, % of untreated” value ([2]; dose 4 (4x, 320 g ai/ha)) was 14.58% and the “Phytotoxicity Index (0-9) 14 days” value ([2]; dose 5 (5x, 400 g ai/ha)) was 9. For the same molecule, the “biomass accumulation 14 days after treatment, % of untreated” value ([2]; dose 5 (5x, 400 g ai/ha)) was 15.0%, the “plant height 14 days after treatment, % of untreated” value ([2]; dose 5 (5x, 400 g ai/ha)) was 14.58% and the “Phytotoxicity Index (0-9) 14 days” value ([2]; dose 6 (6x, 480 g ai/ha)) was 9. The “biomass accumulation 14 days after treatment, % of untreated” value ([2]; dose 6 (6x, 480 g ai/ha)) was 15.0%, the “plant height 14 days after treatment, % of untreated” value ([2]; dose 6 (6x, 480 g ai/ha)) was 14.58% and the height reduction ([2]; 0.5x, 14 DAT) was 85%. The height reduction ([2]; from 1x to 6x, of the untreated control plants) was “approximately 85%”.
